# Reference: US20240218022A1, “ANTI-VISTA MACROCYCLIC PEPTIDES AND COMPOSITIONS” (BRISTOL-MYERS SQUIBB COMPANY, priority 2022, published 2024)
# Positions of bridges follow the written chain, without caps; N, C: chain ends. Non-standard residues stand in square brackets, D forms with d. Residues, ends and D or L forms follow the SMILES beside them. 2Nal = N[C@@H](Cc1ccc2ccccc2c1)C(=O)O; Cit = NC(=O)NCCC[C@H](N)C(=O)O; Ahp(2) = CCCCC[C@H](N)C(=O)O; NMeNle = CCCC[C@H](NC)C(=O)O; NHexGly = CCCCCCNCC(=O)O; Nle = CCCC[C@H](N)C(=O)O
# Target: T1, mouse VISTA (mVISTA) (Mus musculus, UniProt Q9D659)
# T1 construct: expressed in transfected cells; host or cells: Human embryonic kidney 293T cells
# T1 sequence (Q9D659 33-308): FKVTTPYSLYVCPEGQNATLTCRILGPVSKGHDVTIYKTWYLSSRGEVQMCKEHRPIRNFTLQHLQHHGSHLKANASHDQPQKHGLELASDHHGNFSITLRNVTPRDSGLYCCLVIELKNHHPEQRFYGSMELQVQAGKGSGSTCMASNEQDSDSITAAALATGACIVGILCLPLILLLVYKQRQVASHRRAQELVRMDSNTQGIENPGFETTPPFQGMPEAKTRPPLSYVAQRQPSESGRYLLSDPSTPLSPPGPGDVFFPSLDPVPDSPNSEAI
# Experiment: Cell-Based Binding High-Content Assay For mVISTA (HC CBA mVISTA)
# Details: cell-based binding high-content assay, mVISTA; the 16th table; read-out: HC CBA mVISTA IC50
# Outline: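 Read-out: Alexa 647–streptavidin signal imaged on fixed, Hoechst-stained mVISTA-293T cells, with IC50 taken from a four-parameter logistic curve. Compounds competed with 2 nM biotinylated peptide for 30 min at room temperature, tested under both no-wash and wash (1 h compound, media exchange, 1 h) formats.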
row,IC50,SMILES
1,29.9 nM,CCCCCCN1CC(=O)N[C@@H](Cc2ccc(O)cc2)C(=O)N[C@@H](CC(C)C)C(=O)NCC(=O)N[C@@H](CCCNC(=N)N)C(=O)N[C@@H](Cc2ccc(O)cc2)C(=O)N[C@@H](CCCCC)C(=O)N2CCC[C@H]2C(=O)N[C@@H](C(C)C)C(=O)N[C@@H](CO)C(=O)N[C@H](C(=O)NCC(=O)O)CSCC(=O)N[C@@H](Cc2ccc3ccccc3c2)C(=O)N[C@@H](Cc2ccc(O)cc2)C(=O)N[C@@H](CC(=O)O)C1=O [Ex 1292] ({CH2CO}-[2Nal]YD[NHexGly]YLGRY[Ahp(2)]PVSCG-OH; thioether N-14)
2,19.9 nM,CCCCCCN1CC(=O)N[C@@H](Cc2ccc(O)cc2)C(=O)N[C@@H](CC(C)C)C(=O)NCC(=O)N[C@@H](CCCNC(=N)N)C(=O)N[C@@H](CC(N)=O)C(=O)N[C@@H](CCCCC)C(=O)N2CCC[C@H]2C(=O)N[C@@H](C(C)C)C(=O)N[C@@H](CO)C(=O)N[C@H](C(=O)NCC(=O)O)CSCC(=O)N[C@@H](Cc2ccc3ccccc3c2)C(=O)N[C@@H](Cc2ccc(O)cc2)C(=O)N[C@@H](CC(=O)O)C1=O [Ex 1293] ({CH2CO}-[2Nal]YD[NHexGly]YLGRN[Ahp(2)]PVSCG-OH; thioether N-14)
3,9.3 nM,CCCCCCN1CC(=O)N[C@@H](Cc2ccc(O)cc2)C(=O)N[C@@H](CC(C)C)C(=O)NCC(=O)N[C@@H](CCCNC(=N)N)C(=O)N(C)[C@@H](CCCC)C(=O)N[C@@H](CCCCC)C(=O)N2CCC[C@H]2C(=O)N[C@@H](C(C)C)C(=O)N[C@@H](CO)C(=O)N[C@H](C(=O)NCC(N)=O)CSCC(=O)N[C@@H](Cc2ccc3ccccc3c2)C(=O)N[C@@H](Cc2ccc(O)cc2)C(=O)N[C@@H](CC(=O)O)C1=O [Ex 1294] ({CH2CO}-[2Nal]YD[NHexGly]YLGR[NMeNle][Ahp(2)]PVSCG-NH2; thioether N-14)
4,31.4 nM,CCCCCCN1CC(=O)N[C@@H](Cc2ccc(O)cc2)C(=O)N[C@@H](CC(C)C)C(=O)NCC(=O)N[C@@H](CCCNC(=N)N)C(=O)N[C@@H](CC(N)=O)C(=O)N[C@@H](CCCCC)C(=O)N2CCC[C@H]2C(=O)N[C@@H](C(C)C)C(=O)N[C@@H](CO)C(=O)N[C@H](C(=O)NCC(N)=O)CSCC(=O)N[C@@H](Cc2ccc3ccccc3c2)C(=O)N[C@@H](Cc2ccc(O)cc2)C(=O)N[C@@H](CC(=O)O)C1=O [Ex 1295] ({CH2CO}-[2Nal]YD[NHexGly]YLGRN[Ahp(2)]PVSCG-NH2; thioether N-14)
5,17.3 nM,CCCCCCN1CC(=O)N[C@@H](Cc2ccc(O)cc2)C(=O)N[C@@H](CC(C)C)C(=O)NCC(=O)N[C@@H](CCCNC(=N)N)C(=O)N[C@@H](CCCCN)C(=O)N[C@@H](CCCCC)C(=O)N2CCC[C@H]2C(=O)N[C@@H](C(C)C)C(=O)N[C@@H](CO)C(=O)N[C@H](C(=O)NCC(=O)O)CSCC(=O)N[C@@H](Cc2ccc3ccccc3c2)C(=O)N[C@@H](Cc2ccc(O)cc2)C(=O)N[C@@H](CC(=O)O)C1=O [Ex 1296] ({CH2CO}-[2Nal]YD[NHexGly]YLGRK[Ahp(2)]PVSCG-OH; thioether N-14)
6,35.7 nM,CCCCCCN1CC(=O)N[C@@H](Cc2ccc(O)cc2)C(=O)N[C@@H](CC(C)C)C(=O)NCC(=O)N[C@@H](CCCNC(=N)N)C(=O)N[C@@H](Cc2ccc(O)cc2)C(=O)N[C@@H](CCCCC)C(=O)N2CCC[C@H]2C(=O)N[C@@H](C(C)C)C(=O)N[C@@H](CO)C(=O)N[C@H](C(=O)NCC(N)=O)CSCC(=O)N[C@@H](Cc2ccc3ccccc3c2)C(=O)N[C@@H](Cc2ccc(O)cc2)C(=O)N[C@@H](CC(=O)O)C1=O [Ex 1297] ({CH2CO}-[2Nal]YD[NHexGly]YLGRY[Ahp(2)]PVSCG-NH2; thioether N-14)
7,36.1 nM,CCCCCCN1CC(=O)N[C@@H](Cc2ccc(O)cc2)C(=O)N[C@@H](CC(C)C)C(=O)NCC(=O)N[C@@H](CCCNC(=N)N)C(=O)N[C@@H](Cc2ccc(O)cc2)C(=O)N[C@@H](CCCCC)C(=O)N2CCC[C@H]2C(=O)N[C@@H](C(C)C)C(=O)N[C@@H](CC(=O)O)C(=O)N[C@H](C(=O)NCC(N)=O)CSCC(=O)N[C@@H](Cc2ccc3ccccc3c2)C(=O)N[C@@H](Cc2ccc(O)cc2)C(=O)N[C@@H](CC(=O)O)C1=O [Ex 1298] ({CH2CO}-[2Nal]YD[NHexGly]YLGRY[Ahp(2)]PVDCG-NH2; thioether N-14)
8,33.2 nM,CCCCCCN1CC(=O)N[C@@H](Cc2ccc(O)cc2)C(=O)N[C@@H](CC(C)C)C(=O)NCC(=O)N[C@@H](CCCNC(=N)N)C(=O)N[C@@H](Cc2ccc(O)cc2)C(=O)N[C@@H](CCCCC)C(=O)N2CCC[C@H]2C(=O)N[C@@H](C(C)C)C(=O)N[C@@H](C(C)C)C(=O)N[C@H](C(=O)NCC(=O)O)CSCC(=O)N[C@@H](Cc2ccc3ccccc3c2)C(=O)N[C@@H](Cc2ccc(O)cc2)C(=O)N[C@@H](CC(=O)O)C1=O [Ex 1299] ({CH2CO}-[2Nal]YD[NHexGly]YLGRY[Ahp(2)]PVVCG-OH; thioether N-14)
9,4.9 nM,CCCCCCN1CC(=O)N[C@@H](Cc2ccc(O)cc2)C(=O)N[C@@H](CCCC)C(=O)N[C@@H](CC(N)=O)C(=O)N[C@@H](CCCNC(N)=O)C(=O)N[C@@H](CC(C)C)C(=O)N[C@@H](CCCCC)C(=O)N2CCC[C@H]2C(=O)N[C@@H](C(C)C)C(=O)N[C@@H](CC(=O)O)C(=O)N[C@H](C(=O)NCC(=O)O)CSCC(=O)N[C@@H](Cc2ccc3ccccc3c2)C(=O)N[C@@H](Cc2ccc(O)cc2)C(=O)N[C@@H](CC(=O)O)C1=O [Ex 1300] ({CH2CO}-[2Nal]YD[NHexGly]Y[Nle]N[Cit]L[Ahp(2)]PVDCG-OH; thioether N-14)
10,5.6 nM,CCCCCCN1CC(=O)N[C@@H](Cc2ccc(O)cc2)C(=O)N[C@@H](CCCC)C(=O)N[C@@H](CC(N)=O)C(=O)N[C@@H](CCCNC(N)=O)C(=O)N(C)[C@@H](CCCC)C(=O)N[C@@H](CCCCC)C(=O)N2CCC[C@H]2C(=O)N[C@@H](C(C)C)C(=O)N[C@@H](CC(=O)O)C(=O)N[C@H](C(=O)NCC(=O)O)CSCC(=O)N[C@@H](Cc2ccc3ccccc3c2)C(=O)N[C@@H](Cc2ccc(O)cc2)C(=O)N[C@@H](CC(=O)O)C1=O [Ex 1301] ({CH2CO}-[2Nal]YD[NHexGly]Y[Nle]N[Cit][NMeNle][Ahp(2)]PVDCG-OH; thioether N-14)
11,7.5 nM,CCCCCCN1CC(=O)N[C@@H](Cc2ccc(O)cc2)C(=O)N[C@@H](CCCCC)C(=O)NCC(=O)N[C@@H](CCCNC(N)=O)C(=O)N[C@@H](CC(C)C)C(=O)N[C@@H](CCCCC)C(=O)N2CCC[C@H]2C(=O)N[C@@H](C(C)C)C(=O)N[C@@H](CO)C(=O)N[C@H](C(=O)NCC(N)=O)CSCC(=O)N[C@@H](Cc2ccc3ccccc3c2)C(=O)N[C@@H](Cc2ccc(O)cc2)C(=O)N[C@@H](CC(=O)O)C1=O [Ex 1302] ({CH2CO}-[2Nal]YD[NHexGly]Y[Ahp(2)]G[Cit]L[Ahp(2)]PVSCG-NH2; thioether N-14)
12,8.8 nM,CCCCCCN1CC(=O)N[C@@H](Cc2ccc(O)cc2)C(=O)N[C@@H](CCCC)C(=O)NCC(=O)N[C@@H](CCCNC(N)=O)C(=O)N[C@@H](CC(C)C)C(=O)N[C@@H](CCCCC)C(=O)N2CCC[C@H]2C(=O)N[C@@H](C(C)C)C(=O)N[C@@H](CC(=O)O)C(=O)N[C@H](C(=O)NCC(N)=O)CSCC(=O)N[C@@H](Cc2ccc3ccccc3c2)C(=O)N[C@@H](Cc2ccc(O)cc2)C(=O)N[C@@H](CC(=O)O)C1=O [Ex 1303] ({CH2CO}-[2Nal]YD[NHexGly]Y[Nle]G[Cit]L[Ahp(2)]PVDCG-NH2; thioether N-14)
